Test results from paper PMC10154249, “Unique progerin C-terminal peptide ameliorates Hutchinson–Gilford progeria syndrome phenotype by rescuing BUBR1” (Nature Aging, 2023).

Assays:
BUBR1 = target: T1, BUBR1 (Homo sapiens, UniProt O60566); assay: Microscale thermophoresis (MST) of UPCP and BUBR1; type: binding; conditions: Fig. 3d
T1 construct: made in house
Procedure: Cells were harvested and lysed in buffer A mixed with protease inhibitor cocktail tablet (Roche) after 48 h. […] The beads were washed three times using 1× Tris saline buffer (50 mM Tris-HCl (pH 7.4) and 150 mM NaCl)) for 8 min each. The bound proteins BUBR1 or PTBP1 were eluted with 3×Flag peptide (ApexBio) for 2 h at 4 °C. Finally, BUBR1 or PTBP1 was concentrated and recovered by using the Centrifugal Filters (Amicon Ultra).
His-UPCP was eluted with Imidazole eluent for 2 h at 4 °C and concentrated and recovered by using centrifugal filters (Amicon Ultra). Flag-BUBR1 or PTBP1 was purified as described in Affinity purification of Flag-tagged protein. The purified protein was diluted with 0.05% Tween-20 in PBS in to an appropriate concentration (His-UPCP: 50 nM, Flag-BUBR1: 25 μM, Flag-PTBP1: 45 μM). Then, His-UPCP was labeled with RED-Tris-NAT according to the manufacturer’s instructions (NanoTemper, MO-L018). Flag-BUBR1 or Flag-PTBP1 was diluted by 16 concentration gradients in turn and mixed with labeled protein (His-UPCP). The capillaries (MST NT115 premium) were loaded and the samples measured on the instrument (NanoTemper Monolith NT.115). Data were analyzed by MO.AffinityAnalysis and curves were drawn using Origin 2019.

[1] = tested on: BUBR1 / CyclinA2 in HGADFN003 cells; assay: Western blot of BUBR1 and CyclinA2 in HGADFN003 cells; type: cell-based, human
Procedure: Western blot was performed as previously described. Cells were lysed in 1× Laemmli sample buffer after washing twice in cold PBS without calcium and magnesium. Protein concentrations were determined using the bicinchoninic acid (BCA) protein assay. Protein lysates were subjected to SDS–PAGE, transferred to 0.45-μm pore size hydrophobic PVDF transfer membrane (Merck Millipore), detected with the appropriate primary antibodies coupled with horseradish peroxidase-conjugated corresponding secondary antibodies, and visualized using enhanced chemiluminescence ECL reagent (GE Healthcare). The Tanon 5500 high-definition low-illumination CCD system (Tanon FLI Capture v.1.02) was used to capture chemiluminescent signals.

HGADFN003 cells = assay: SA-β-gal staining of HGADFN003 cells; type: cell-based, human; conditions: for Relative percentage of SA-β-gal positive cells: Fig. 5a, Mock 32, 39, 31, P=0.0059; for SA-β-gal positive cells: HGADFN003, Extended Data Fig. 10c
Procedure: SA-β-gal staining was performed as previously described. Cells were fixed in 0.5% glutaraldehyde for 15 min at room temperature, washed three times with PBS (pH 6.0) containing 1 mM MgCl2 and exposed overnight 37 °C to containing 1 mg ml^–1 5-bromo-4-chloro-3-indolyl-β-D-galactopyranoside (MCE, catalog no. HY-15934), 0.12 mM potassium ferrocyanide (Sigma, catalog no. P3289), 0.12 mM potassium ferricyanide (Sigma, catalog no. P8131) and 1 mM MgCl2 PBS buffer (pH 6.0). Cells were washed three times with H2O and observed under a microscope (OLYMPUS CKX53). SA-β-gal positive cells were quantified by investigators who were blinded to the identity of the analyzed cell.

Lmna^G609G/G609G mice = assay: Survival (Kaplan–Meier) of Lmna^G609G/G609G mice; type: in vivo, mouse
From the text: All animal experiments were approved by the Ethics Committee of School of Life Sciences, Northeast Normal University, China (AP20191011) and carried out in accordance with the relevant guidelines: National Standards of the People’s Republic of China (GB/T 35892–2018), Laboratory Animal—Guideline for Ethical Review of Animal Welfare. We generated a mouse model (ICR background), carrying the Lmna^G609G using the BE4-Gam system. The protocols for the BE4-Gam system and microinjection of pronuclear-stage embryos have been described in detail previously[37],[38],[59]. Briefly, a mixture of BE4-Gam mRNA (200 ng μl^–1) and sgRNA-Lmna (30 ng μl^–1) was coinjected into the cytoplasm of pronuclear-stage embryos of the mouse. The injected embryos were transferred to embryo culture medium for 30–60 min, followed by transferring the injected embryos into the recipient mother. The embryos continued to develop and the founder mice (referred to as F0) were born: wild-type mice (Lmna^+/+), heterozygous mice (Lmna^G609G/+) and homozygous mice (Lmna^G609G/G609G). F1 heterozygous mice (Lmna^G609G/+) were obtained by crossing F0 heterozygous mice (Lmna^G609G/+). F2 homozygous mice (Lmna^G609G/G609G) were obtained by crossing F1 heterozygous mice (Lmna^G609G/+). We selected F2 mice (Lmna^+/+ and Lmna^G609G/G609G) for subsequent experiments. The mice were housed with a 12-h light/dark cycle (6:00 to 18:00) in a 20 °C and 40% humidity-controlled room. Water and rodent feed were fed ad libitum.
For UPCP injection, 14-day-old Lmna^G609G/G609G mice were injected intraperitoneally with either PBS or UPCP (20 mg kg^–1, every other day) and wild-type mice were injected with PBS. All phenotypic analyses were performed after 12 weeks of treatment with UPCP. Bodyweight and lifespan were monitored after UPCP treatment. The survival rate was analyzed by the Kaplan–Meier method. We only included mice that were of sufficient bodyweight at the start of the experiment, typically at least 80% of the average littermate weight of the same sex and genotype. All animals meeting criteria for inclusion were then divided randomly into three groups according to genotype (Lmna^+/+, Lmna^G609G/G609G-Mock and Lmna^G609G/G609G-UPCP).

T1 sequence (O60566 whole entry): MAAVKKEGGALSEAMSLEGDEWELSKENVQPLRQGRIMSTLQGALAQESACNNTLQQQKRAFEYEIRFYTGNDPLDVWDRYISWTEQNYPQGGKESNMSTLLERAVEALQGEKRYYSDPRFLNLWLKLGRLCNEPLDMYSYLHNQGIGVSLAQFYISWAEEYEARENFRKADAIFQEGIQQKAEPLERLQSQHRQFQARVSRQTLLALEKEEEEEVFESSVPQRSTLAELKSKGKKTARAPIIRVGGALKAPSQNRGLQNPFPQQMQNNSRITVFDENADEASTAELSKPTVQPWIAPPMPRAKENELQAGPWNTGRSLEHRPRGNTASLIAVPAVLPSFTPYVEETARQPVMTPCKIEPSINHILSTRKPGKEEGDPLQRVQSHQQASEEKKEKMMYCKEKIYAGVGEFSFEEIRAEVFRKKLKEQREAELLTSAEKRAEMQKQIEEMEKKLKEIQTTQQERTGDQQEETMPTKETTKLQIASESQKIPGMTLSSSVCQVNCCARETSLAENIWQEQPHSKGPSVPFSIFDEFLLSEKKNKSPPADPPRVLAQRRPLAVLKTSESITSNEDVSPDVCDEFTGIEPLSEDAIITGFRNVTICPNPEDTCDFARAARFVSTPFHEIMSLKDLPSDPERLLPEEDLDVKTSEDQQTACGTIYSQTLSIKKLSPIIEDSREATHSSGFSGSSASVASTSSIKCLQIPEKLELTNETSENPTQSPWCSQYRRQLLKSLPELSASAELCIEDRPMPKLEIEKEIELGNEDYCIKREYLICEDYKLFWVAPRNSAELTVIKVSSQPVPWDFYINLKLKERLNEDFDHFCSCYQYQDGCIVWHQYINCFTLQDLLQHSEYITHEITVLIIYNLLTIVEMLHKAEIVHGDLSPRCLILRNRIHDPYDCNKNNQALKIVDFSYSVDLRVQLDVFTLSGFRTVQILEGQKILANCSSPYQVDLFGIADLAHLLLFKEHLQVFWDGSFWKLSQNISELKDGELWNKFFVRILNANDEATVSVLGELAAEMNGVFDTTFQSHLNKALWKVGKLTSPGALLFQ

Substance: H-YGRKKRRQRRRYNLRSRTVLCGTCGQPADKASASGSGAQSPQNCSIM-OH (cysteines drawn unpaired) [UPCP, unique progerin C-terminal peptide]
- Dose Response Curve, Response (BUBR1; Dose 3.125e-6, Err-Value 0.164542): 928.56
- Dose Response Curve, Response (BUBR1; Dose 6.25e-6, Err-Value 0.285623): 930.678
- Dose Response Curve, Response (BUBR1; Dose 1.25e-5, Err-Value 0.150599): 932.492
- Dose Response Curve, Response (BUBR1; Dose 1.22E-08, Err-Value 0.206069): 919.933
- Dose Response Curve, Response (BUBR1; Dose 1.53E-09, Err-Value 0.561265): 919.392
- Dose Response Curve, Response (BUBR1; Dose 1.56E-06, Err-Value 0.465775): 925.424
- Dose Response Curve, Response (BUBR1; Dose 1.95E-07, Err-Value 0.135144): 920.487
- Dose Response Curve, Response (BUBR1; Dose 2.44E-08, Err-Value 0.0972446): 919.498
- Dose Response Curve, Response (BUBR1; Dose 3.05E-09, Err-Value 0.226695): 919.513
- Dose Response Curve, Response (BUBR1; Dose 3.81E-10, Err-Value 0.379307): 919.141
- Dose Response Curve, Response (BUBR1; Dose 3.91E-07, Err-Value 0.144905): 921.751
- Dose Response Curve, Response (BUBR1; Dose 4.88E-08, Err-Value 0.856541): 920.216
- Dose Response Curve, Response (BUBR1; Dose 6.10E-09, Err-Value 0.130907): 919.306
- Dose Response Curve, Response (BUBR1; Dose 7.63E-10, Err-Value 0.475828): 919.4
- Dose Response Curve, Response (BUBR1; Dose 7.81E-07, Err-Value 0.529145): 922.85
- Dose Response Curve, Response (BUBR1; Dose 9.77E-08, Err-Value 0.363098): 919.824
- BUBR1 expression (FTI-277/UPCP comparison, words) ([1]; HGADFN003): increasing expression of BUBR1
- CyclinA2 expression (FTI-277/UPCP comparison, words) ([1]; HGADFN003): increasing expression of BUBR1, CyclinA2
- BUBR1 abundance ([1]; HGADFN003 cells, UPCP 0–10 μM, Western blot): upregulated BUBR1
- Relative percentage of SA-β-gal positive cells (HGADFN003 cells; HGADFN003, replicate 1): 15%
- Relative percentage of SA-β-gal positive cells (HGADFN003 cells; HGADFN003, replicate 2): 10%
- Relative percentage of SA-β-gal positive cells (HGADFN003 cells; HGADFN003, replicate 3): 19%
- SA-β-gal activity (FTI-277/UPCP comparison, words) (HGADFN003 cells; HGADFN003): decreased the activity of SA-β-gal
- SA-β-gal positive cells (HGADFN003 cells; replicate 1): 12%
- SA-β-gal positive cells (HGADFN003 cells; replicate 2): 18%
- SA-β-gal positive cells (HGADFN003 cells; replicate 3): 25%
- SA-β-gal activity (HGADFN003 cells; HGPS cells): reduced activity of SA-β-gal
- efficacy on HGPS cellular senescence relative to FTI-277 (HGADFN003 cells; HGPS cells): comparable with farnesyltransferase inhibitors (FTI-277)
- mean survival (Lmna^G609G/G609G mice; 20 mg kg^–1 i.p. every other day from 14 days of age, PBS 100.9 days): 118.6 days
- median survival (Lmna^G609G/G609G mice; 20 mg kg^–1 i.p. every other day from 14 days of age, n = 15 UPCP vs n = 17 PBS (100 days)): 117 days
- individual survival (Lmna^G609G/G609G mice; 20 mg kg^–1 i.p. every other day, female, individual 1 of 9): 103 days
- individual survival (Lmna^G609G/G609G mice; 20 mg kg^–1 i.p. every other day, female, individual 2 of 9): 110 days
- individual survival (Lmna^G609G/G609G mice; 20 mg kg^–1 i.p. every other day, female, individual 3 of 9): 110 days
- individual survival (Lmna^G609G/G609G mice; 20 mg kg^–1 i.p. every other day, female, individual 4 of 9): 111 days
- individual survival (Lmna^G609G/G609G mice; 20 mg kg^–1 i.p. every other day, female, individual 5 of 9): 117 days
- individual survival (Lmna^G609G/G609G mice; 20 mg kg^–1 i.p. every other day, female, individual 6 of 9): 126 days
- individual survival (Lmna^G609G/G609G mice; 20 mg kg^–1 i.p. every other day, female, individual 7 of 9): 128 days
- individual survival (Lmna^G609G/G609G mice; 20 mg kg^–1 i.p. every other day, female, individual 8 of 9): 130 days
- individual survival (Lmna^G609G/G609G mice; 20 mg kg^–1 i.p. every other day, female, individual 9 of 9): 136 days
- individual survival (Lmna^G609G/G609G mice; 20 mg kg^–1 i.p. every other day, male, individual 1 of 6): 104 days
- individual survival (Lmna^G609G/G609G mice; 20 mg kg^–1 i.p. every other day, male, individual 2 of 6): 106 days
- individual survival (Lmna^G609G/G609G mice; 20 mg kg^–1 i.p. every other day, male, individual 3 of 6): 116 days
- individual survival (Lmna^G609G/G609G mice; 20 mg kg^–1 i.p. every other day, male, individual 4 of 6): 118 days
- individual survival (Lmna^G609G/G609G mice; 20 mg kg^–1 i.p. every other day, male, individual 5 of 6): 129 days
- individual survival (Lmna^G609G/G609G mice; 20 mg kg^–1 i.p. every other day, male, individual 6 of 6): 135 days
- increase in lifespan (median survival) (Lmna^G609G/G609G mice; 20 mg kg^–1 i.p. every other day, vs PBS-treated mice): 17%
